Target: T1, human plasma protein factor Xa (Homo sapiens, UniProt P00742)
T1 construct: measure proteolytic activity of the enzyme (factor Xa); purchased Haematologic Technologies (Essex Junction, Vt.); host or cells: human plasma
Assay: Factor Xa IC50 determination: cleavage of paranitroanilide substrate S-2765 in 96-well plates
Type: biochemical
Conditions: fXa 1 nM, S-2765 100 μM, Tris buffered saline pH 7.4, room temperature
Summary of the method: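 Human plasma factor Xa (1 nM) preincubated 5 min at room temperature with inhibitor (0.01 nM–10 μM final) in Tris-buffered saline pH 7.4 with 5 mM CaCl2, 0.1% BSA, 5% DMSO. S-2765 at 100 μM final; hydrolysis at 405 nm over 2 min. IC50 from 4-parameter fit of initial velocities.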

T1 sequence (P00742 235-488 limits assumed): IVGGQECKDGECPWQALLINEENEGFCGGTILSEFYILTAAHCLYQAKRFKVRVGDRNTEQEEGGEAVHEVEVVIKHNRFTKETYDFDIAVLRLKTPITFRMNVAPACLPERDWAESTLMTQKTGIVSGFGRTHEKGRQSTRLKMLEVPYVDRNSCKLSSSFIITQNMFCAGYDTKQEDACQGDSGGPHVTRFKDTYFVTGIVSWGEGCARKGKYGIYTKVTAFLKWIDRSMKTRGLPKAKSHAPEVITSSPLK
T1 sequence (P00742 41-179 partner limits assumed): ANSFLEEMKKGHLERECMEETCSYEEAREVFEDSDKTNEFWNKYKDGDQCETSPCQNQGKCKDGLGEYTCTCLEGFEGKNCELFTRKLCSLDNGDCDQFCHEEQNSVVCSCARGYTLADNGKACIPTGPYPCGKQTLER

## CN(C)CCN(C)C(=N)c1ccc(-c2cc(CN(C)C(=O)c3ccc(Cl)s3)on2)cc1 [Example 44, 5-Chloro-thiophene-2-carboxylic acid (3-{4-[N-(2-dimethylamino-ethyl)-N-methyl-carbamimidoyl]-phenyl}-isoxazol-5-ylmethyl)-methyl-amide]
  IC50: ≥ 500 nM

## N=C(N)N1CCC(C2=NOC(CNC(=O)c3ccc(Cl)s3)C2)CC1 (centres unmarked) [Example 172, 5-Chloro-thiophene-2-carboxylic acid [3-(1-carbamimidoyl-piperidin-4-yl)-4,5-dihydro-isoxazol-5-ylmethyl]-amide]
  IC50: ≥ 500 nM

## O=C(NCc1cn(-c2ccc(N3CCOCC3=O)nc2)nn1)c1ccc(Cl)s1 [Example 387, 5-Chloro-N-((1-(6-(3-oxomorpholino)pyridin-3-yl)-1H-1,2,3-triazol-4-yl)methyl)thiophene-2-carboxamide]
  IC50: ≤ 100 nM

## CN(C)c1cc(C(=N)N2CCCC2)ccc1-c1cc(CNC(=O)c2ccc(Cl)s2)on1 [Example 96, 5-Chloro-thiophene-2-carboxylic acid {3-[2-dimethylamino-4-(imino-pyrrolidin-1-yl-methyl)-phenyl]-isoxazol-5-ylmethyl}-amide]
  IC50: ≤ 100 nM

## O=C(NCc1cc(-c2cccc(Br)c2)no1)c1ccc(Cl)s1 [Example 4, 5-Chloro-thiophene-2-carboxylic acid [3-(3-bromo-phenyl)-isoxazol-5-ylmethyl]-amide]
  IC50: ≥ 500 nM

## CCN(C)C(=N)c1ccc(-c2nc(CNC(=O)c3ccc(Cl)s3)co2)cc1 [Example 343, N-((2-(4-(N-Ethyl-N-methylcarbamimidoyl)phenyl)oxazol-4-yl)methyl)-5-chlorothiophene-2-carboxamide]
  IC50: 100 to 500 nM

## CCCN(C)C(=N)c1ccc(-n2cc(CNC(=O)c3ccc(Cl)s3)nn2)cc1 [Example 315, N-((1-(4-(N-Methyl-N-propylcarbamimidoyl)phenyl)-1H-1,2,3-triazol-4-yl)methyl)-5-chlorothiophene-2-carboxamide]
  IC50: ≤ 100 nM

## O=C(NCC1CC(c2ccc(Nc3ccncn3)cc2)=NO1)c1ccc(Cl)s1 (centres unmarked) [Example 230, 5-Chloro-thiophene-2-carboxylic acid {3-[4-(pyrimidin-4-ylamino)-phenyl]-4,5-dihydro-isoxazol-5-ylmethyl}-amide]
  IC50: 100 to 500 nM

## COc1ccc(Oc2cc(C(=N)N(C)C)ccc2-c2cc(CNC(=O)c3ccc(Cl)s3)on2)cc1 [Example 133, 5-Chloro-thiophene-2-carboxylic acid {3-[4-(N,N-dimethyl-carbamimidoyl)-2-(4-methoxy-phenoxy)-phenyl]-isoxazol-5-ylmethyl}-amide]
  IC50: ≤ 100 nM

## N=C(c1ccc(-n2cc(CNC(=O)c3ccc(Cl)s3)nn2)c(F)c1)N1CCC1 [Example 321, N-((1-(4-(Azetidin-1-yl(imino)methyl)-2-fluorophenyl)-1H-1,2,3-triazol-4-yl)methyl)-5-chlorothiophene-2-carboxamide]
  IC50: ≤ 100 nM

## O=C(NCc1cc(-c2cccc(-c3ccccc3CN3CCCC3)c2)no1)c1ccc(Cl)s1 [Example 269, 5-Chloro-thiophene-2-carboxylic acid [3-(2′-pyrrolidin-1-ylmethyl-biphenyl-3-yl)-isoxazol-5-ylmethyl]-amide]
  IC50: ≤ 100 nM

## O=C(NCC1CC(c2ccc(Nc3ccc4ncccc4c3)cc2)=NO1)c1ccc(Cl)s1 (centres unmarked) [Example 396, 5-Chloro-N-((3-(4-(quinolin-6-ylamino)phenyl)-4,5-dihydroisoxazol-5-yl)methyl)thiophene-2-carboxamide]
  IC50: ≥ 500 nM

## O=C(NCc1cn(-c2ccc(N3CCOCC3)nc2)nn1)c1ccc(Cl)s1 [Example 386, 5-Chloro-N-((1-(6-morpholinopyridin-3-yl)-1H-1,2,3-triazol-4-yl)methyl)thiophene-2-carboxamide]
  IC50: 100 to 500 nM

## CN1CCN=C1c1ccc(-n2cnc(CNC(=O)c3ccc(Cl)s3)c2)cc1 [Example 365, 5-Chloro-N-((1-(4-(1-methyl-4,5-dihydro-1H-imidazol-2-yl)phenyl)-1H-imidazol-4-yl)methyl)thiophene-2-carboxamide]
  IC50: ≤ 100 nM

From patent US8377974B2 (Millennium Pharmaceuticals, Inc., priority 2004, dated 2013)
